Test system: differentiated human keratinocytes
Test: in vitro screening of desquamating activity (release of corneocytes, cellular detachment index, flow cytometer)
Format: cell-based
Conditions: for % of activity with respect to the control composed of an identical culture in the absence of compound (cellular detachment index): compounds at 5 × 10^−5 M, difference between T60 and T0 (60 minutes after addition), corneocytes counted by flow cytometer
Protocol: This test of in vitro screening of an agent which is active with regard to desquamation was carried out on differentiated human keratinocytes. The principle of the test is based on the fact that desquamation induces the release of corneocytes. The desquamating power of the test product increases as the number of corneocytes released increases.
The protocol of the test was as follows: starting with biopsies of human skin, the keratinocytes obtained by separation from the epidermis were dissociated by enzymatic action with trypsin and were cultured at a concentration of 2×10^5 cell/ml. The growth and differentiation of the keratinocytes was obtained by culturing for 10 to 20 days in a specific medium. The activity of the test product was then evaluated after removal of the culture medium. To do this, two samples were taken at T0 and T60, that namely, before the addition of the product and 60 minutes after this addition. The samples thus taken were analyzed with a flow cytometer in order to count the population of corneocytes. The flow cytometer made it possible to distinguish the populations of corneocytes and of keratinocytes by treatment with acridine orange, which is specific for cellular DNA.
The cellular detachment index was determined by the difference between T60 and T0. The same measurement was carried out for a control not comprising test product, because the experiment inevitably produced the release of corneocytes, even in the absence of active principles.
The test was carried out with 10-hydroxy-2-decenoic acid at a concentration of 5×10^−5M.

SMILES	activity with regard to cellular detachment (5 × 10^−5 M, differentiated human keratinocytes)	% of activity with respect to the control composed of an identical culture in the absence of compound (cellular detachment index) [%]
O=C(O)C=CCCCCCCCO [10-Hydroxy-2-decenoic acid]	high	110
CCCCCCCC(=O)c1ccc(O)c(C(=O)O)c1 [Reference, 2-Hydroxy-5-octanoylbenzoic acid, reference compound]	–	92
